The values below come from article PMC2711991 (Cancer research, 2009).

Where a name gives a salt, the structure may show the parent alone.

Format in all cases: cell-based
The target in series [1] is T1, ABCG2 (Homo sapiens, UniProt Q9UNQ0).
T1 sequence (Q9UNQ0 1-655): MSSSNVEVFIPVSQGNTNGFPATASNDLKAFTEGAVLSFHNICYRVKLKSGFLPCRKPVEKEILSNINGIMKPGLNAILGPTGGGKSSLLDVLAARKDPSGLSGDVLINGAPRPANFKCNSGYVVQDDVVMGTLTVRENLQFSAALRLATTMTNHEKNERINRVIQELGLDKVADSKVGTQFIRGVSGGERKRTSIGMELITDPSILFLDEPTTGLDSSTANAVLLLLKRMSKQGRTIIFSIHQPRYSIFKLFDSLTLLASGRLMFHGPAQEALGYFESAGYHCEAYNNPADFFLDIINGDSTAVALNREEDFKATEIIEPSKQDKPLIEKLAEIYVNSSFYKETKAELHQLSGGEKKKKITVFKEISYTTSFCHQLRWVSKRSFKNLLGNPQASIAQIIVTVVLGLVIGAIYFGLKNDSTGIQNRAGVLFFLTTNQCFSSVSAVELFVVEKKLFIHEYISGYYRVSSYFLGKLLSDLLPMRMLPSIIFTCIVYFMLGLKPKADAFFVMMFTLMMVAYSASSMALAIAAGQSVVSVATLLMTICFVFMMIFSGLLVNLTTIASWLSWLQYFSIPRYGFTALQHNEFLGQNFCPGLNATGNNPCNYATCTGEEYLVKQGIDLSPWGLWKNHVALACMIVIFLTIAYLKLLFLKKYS
The series can be described thus: BLI D-luciferin efflux inhibition in HEK293/ABCG2/fLuc cells.

Series [2] concerns the target T1, ABCG2.
Series [3] addresses T1, ABCG2. The series can be described thus: BODIPY-prazosin uptake in HEK293/ABCG2 cells at […].

On to `COc1cc(N)c(Cl)cc1C(=O)NC1CCN(Cc2ccccc2)CC1` [clebopride maleate], for which the IC50 (commonly the concentration that gives 50% inhibition) in series [1] is around 8.2 µM. `COc1cc2nc(N3CCN(C(=O)C4COc5ccccc5O4)CC3)nc(N)c2cc1OC` (centres unmarked) [doxazosin mesylate] came in with an IC50 in series [1] of around 8 µM. In series [1], `Cc1c(-c2ccccc2)oc2c(C(=O)OCCN3CCCCC3)cccc2c1=O` [flavoxate hydrochloride] registered an IC50 of around 20 µM. Take `CC(C)C(=O)Nc1ccc([N+](=O)[O-])c(C(F)(F)F)c1` [flutamide]: in series [2], the “BODIPY-prazosin uptake in HEK293/ABCG2 cells at 20 μM; BLI 6.1-fold enhancement;” value is listed as “flutamide|Y|Y”. Regarding `C=C(C)[C@H]1Cc2c(ccc3c2O[C@@H]2COc4cc(OC)c(OC)cc4[C@@H]2C3=O)O1` [rotenone], the “BODIPY-prazosin uptake in HEK293/ABCG2 cells at 20 μM; BLI 6.7-fold enhancement;” value in series [3] was “rotenone|Y|Y”.
